{"source": "patent US20150057305A1", "about": "“PHARMACEUTICAL COMPOSITION” (SHANGHAI HOTMED SCIENCES CO., LTD., priority 2012, published 2015)", "key": {"[1]": {"settings": "cited from earlier work"}, "[2]": {"assay": "Distribution coefficient (n-octanol-water) shake flask method GB/T 21853-2008", "format": "physicochemical", "settings": "in water"}, "[3]": {"assay": "Solubility in water", "format": "physicochemical"}, "[4]": {"settings": "dog, in vivo; cited from earlier work"}}}
{"smiles": "CC[C@@]1(OC(=O)OCC(C)C)C(=O)OCc2c1cc1n(c2=O)Cc2cc3c([N+](=O)[O-])cccc3nc2-1", "note": "[the compound of formula I]", "values": [{"measurement": "stability in human plasma", "setting": "[1]", "result": "good stability"}, {"measurement": "Lg Po/w", "setting": "[2]", "result": 7.31}, {"measurement": "solubility in water", "setting": "[3]", "result": "almost insoluble in water"}]}
{"smiles": "CC[C@@]1(O)C(=O)OCc2c1cc1n(c2=O)Cc2cc3c([N+](=O)[O-])cccc3nc2-1", "note": "[Example 9-NC, 9-nitro-camptothecin]", "values": [{"measurement": "oral bioavailability", "setting": "[4]", "result": "less than 6%"}]}
